Counter-ions that a name gives are not always drawn. Like-named read-outs stand apart in the source and are kept apart here.
Tests used:
Cav2.2 [1] = target: T1, Cav2.2 (Homo sapiens, UniProt Q00975); assay: HEK assay (whole-cell patch clamp, transiently transfected HEK-293T/17 cells, pulses P1 and P5); format: cell-based; details: holding potential −100 mV
T1 construct: expressed in transfected cells; host or cells: HEK-293T/17 (transient, FuGENE 6)
Outline: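 Whole-cell voltage clamp of HEK-293T/17 cells transiently transfected via FuGENE 6, then grown 24 h in 1% serum before recording. From −100 mV holding, trains of five 20–30 ms steps to about +10 mV at 5 Hz, repeated every 30 s; steady-state IC50s taken at first (P1) and fifth (P5) pulses to gauge use-dependent block.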

Cav2.2 [2] = target: Cav2.2 (UniProt Q02294); assay: Oocyte assay (Xenopus oocyte heterologous expression, current at fifth pulse P5); format: cell-based; details: Xenopus oocytes; fifth pulse (P5) of 5 Hz train, holding potential −100 mV
Experimental: The assay was performed on various calcium channels (e.g., Cav2.2 subfamily) whereby the modulation of the calcium channel was measured for each tested compound.

[3] = fifth pulse (P5) of 5 Hz train, read-out: HEK Cav2.2 P5 IC50
[4] = first pulse (P1) of 5 Hz train, read-out: HEK Cav2.2 P1 IC50

T1 sequence (Q00975 whole entry): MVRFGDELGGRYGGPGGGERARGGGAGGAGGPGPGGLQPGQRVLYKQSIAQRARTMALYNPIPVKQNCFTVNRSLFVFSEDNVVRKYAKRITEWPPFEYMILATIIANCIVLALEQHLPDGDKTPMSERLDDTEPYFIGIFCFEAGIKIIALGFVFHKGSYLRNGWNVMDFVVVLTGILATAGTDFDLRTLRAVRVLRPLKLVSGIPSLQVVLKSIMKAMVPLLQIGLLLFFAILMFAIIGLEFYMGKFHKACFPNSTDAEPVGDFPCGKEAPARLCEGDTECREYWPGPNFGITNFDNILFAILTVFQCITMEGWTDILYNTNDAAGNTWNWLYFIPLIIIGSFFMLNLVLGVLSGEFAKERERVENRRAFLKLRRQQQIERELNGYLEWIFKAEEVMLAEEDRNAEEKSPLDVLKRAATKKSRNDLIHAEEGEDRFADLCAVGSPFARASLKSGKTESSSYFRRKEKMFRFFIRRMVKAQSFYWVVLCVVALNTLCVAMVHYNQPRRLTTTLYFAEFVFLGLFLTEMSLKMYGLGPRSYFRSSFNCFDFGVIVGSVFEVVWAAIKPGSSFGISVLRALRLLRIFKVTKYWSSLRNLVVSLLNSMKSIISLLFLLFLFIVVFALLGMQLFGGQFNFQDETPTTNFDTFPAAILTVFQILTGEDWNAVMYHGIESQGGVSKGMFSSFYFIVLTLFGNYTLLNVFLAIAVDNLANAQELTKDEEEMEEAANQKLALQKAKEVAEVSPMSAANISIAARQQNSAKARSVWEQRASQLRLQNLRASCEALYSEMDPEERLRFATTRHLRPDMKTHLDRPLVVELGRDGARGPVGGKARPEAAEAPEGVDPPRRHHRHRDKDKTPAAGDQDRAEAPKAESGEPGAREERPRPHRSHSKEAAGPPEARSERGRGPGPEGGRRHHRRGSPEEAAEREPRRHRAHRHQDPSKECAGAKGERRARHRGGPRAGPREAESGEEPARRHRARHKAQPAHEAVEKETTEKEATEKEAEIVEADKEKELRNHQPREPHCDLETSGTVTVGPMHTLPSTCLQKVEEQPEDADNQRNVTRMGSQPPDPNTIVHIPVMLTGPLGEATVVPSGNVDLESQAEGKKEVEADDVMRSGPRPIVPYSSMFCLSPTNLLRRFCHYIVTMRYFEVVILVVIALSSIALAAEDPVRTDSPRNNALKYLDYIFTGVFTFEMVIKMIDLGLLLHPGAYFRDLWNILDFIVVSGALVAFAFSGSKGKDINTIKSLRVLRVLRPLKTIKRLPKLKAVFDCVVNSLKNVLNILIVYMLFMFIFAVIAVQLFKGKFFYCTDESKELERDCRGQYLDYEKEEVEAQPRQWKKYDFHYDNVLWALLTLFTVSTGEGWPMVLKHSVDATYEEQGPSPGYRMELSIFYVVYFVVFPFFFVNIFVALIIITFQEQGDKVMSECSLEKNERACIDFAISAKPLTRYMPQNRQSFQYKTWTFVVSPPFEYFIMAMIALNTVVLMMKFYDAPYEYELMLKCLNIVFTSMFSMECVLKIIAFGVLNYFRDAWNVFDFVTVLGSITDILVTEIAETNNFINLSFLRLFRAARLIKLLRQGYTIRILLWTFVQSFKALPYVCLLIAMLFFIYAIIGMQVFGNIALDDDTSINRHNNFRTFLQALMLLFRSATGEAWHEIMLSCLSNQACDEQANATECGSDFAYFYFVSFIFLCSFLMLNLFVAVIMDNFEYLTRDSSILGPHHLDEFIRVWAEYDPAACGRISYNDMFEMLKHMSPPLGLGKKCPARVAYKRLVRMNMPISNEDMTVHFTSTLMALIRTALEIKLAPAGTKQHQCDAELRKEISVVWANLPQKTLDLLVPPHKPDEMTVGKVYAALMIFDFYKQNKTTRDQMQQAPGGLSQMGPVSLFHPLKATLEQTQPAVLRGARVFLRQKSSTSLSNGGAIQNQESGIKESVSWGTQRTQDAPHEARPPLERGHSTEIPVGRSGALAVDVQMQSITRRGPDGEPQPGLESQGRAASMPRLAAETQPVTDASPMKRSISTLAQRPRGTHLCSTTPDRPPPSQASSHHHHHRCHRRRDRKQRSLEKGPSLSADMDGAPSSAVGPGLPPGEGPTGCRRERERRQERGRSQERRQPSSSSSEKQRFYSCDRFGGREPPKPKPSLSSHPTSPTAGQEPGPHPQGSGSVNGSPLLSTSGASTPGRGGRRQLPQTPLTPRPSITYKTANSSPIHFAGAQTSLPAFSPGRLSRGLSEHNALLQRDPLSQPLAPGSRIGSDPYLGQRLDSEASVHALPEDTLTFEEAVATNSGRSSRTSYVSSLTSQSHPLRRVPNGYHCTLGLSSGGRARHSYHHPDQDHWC
T1 sequence (P54284 whole entry partner): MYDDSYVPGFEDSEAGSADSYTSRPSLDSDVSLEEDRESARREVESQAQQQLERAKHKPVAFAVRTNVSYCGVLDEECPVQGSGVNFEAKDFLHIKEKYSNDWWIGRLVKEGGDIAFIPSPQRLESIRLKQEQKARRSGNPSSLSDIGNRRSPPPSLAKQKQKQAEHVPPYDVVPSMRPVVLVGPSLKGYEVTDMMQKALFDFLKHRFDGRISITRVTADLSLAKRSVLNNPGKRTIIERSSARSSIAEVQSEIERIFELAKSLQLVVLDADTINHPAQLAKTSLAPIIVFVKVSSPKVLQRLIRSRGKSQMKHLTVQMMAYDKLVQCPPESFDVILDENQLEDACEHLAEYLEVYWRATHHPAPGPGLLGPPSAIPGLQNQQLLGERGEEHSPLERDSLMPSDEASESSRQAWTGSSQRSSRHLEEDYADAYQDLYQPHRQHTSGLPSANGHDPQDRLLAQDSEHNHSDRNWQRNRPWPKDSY
T1 sequence (P54289 25-946 partner limits assumed): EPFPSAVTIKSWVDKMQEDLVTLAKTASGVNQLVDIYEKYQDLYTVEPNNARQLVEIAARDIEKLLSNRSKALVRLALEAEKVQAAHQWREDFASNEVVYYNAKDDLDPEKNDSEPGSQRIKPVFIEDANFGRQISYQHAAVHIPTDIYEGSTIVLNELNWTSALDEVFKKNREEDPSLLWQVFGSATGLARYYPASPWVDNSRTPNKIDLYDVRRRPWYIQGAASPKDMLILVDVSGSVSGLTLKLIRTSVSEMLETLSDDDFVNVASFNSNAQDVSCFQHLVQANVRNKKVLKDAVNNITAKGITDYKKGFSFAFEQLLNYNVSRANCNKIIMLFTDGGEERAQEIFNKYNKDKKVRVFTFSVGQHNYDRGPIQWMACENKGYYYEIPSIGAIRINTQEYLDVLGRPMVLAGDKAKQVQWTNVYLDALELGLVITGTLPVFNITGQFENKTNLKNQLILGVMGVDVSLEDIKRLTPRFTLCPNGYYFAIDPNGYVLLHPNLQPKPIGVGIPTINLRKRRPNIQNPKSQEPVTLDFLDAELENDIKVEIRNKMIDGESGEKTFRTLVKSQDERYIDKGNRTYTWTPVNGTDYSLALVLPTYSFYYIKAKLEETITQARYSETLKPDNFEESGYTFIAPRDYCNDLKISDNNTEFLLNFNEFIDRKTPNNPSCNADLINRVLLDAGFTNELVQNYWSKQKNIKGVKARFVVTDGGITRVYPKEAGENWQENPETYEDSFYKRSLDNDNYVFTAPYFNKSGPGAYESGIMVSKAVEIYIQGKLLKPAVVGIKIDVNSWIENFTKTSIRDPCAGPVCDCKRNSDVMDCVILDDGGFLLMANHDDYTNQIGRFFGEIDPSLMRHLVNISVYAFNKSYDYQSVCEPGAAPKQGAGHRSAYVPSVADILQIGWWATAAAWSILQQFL
T1 sequence (P54289 947-1103 partner limits assumed): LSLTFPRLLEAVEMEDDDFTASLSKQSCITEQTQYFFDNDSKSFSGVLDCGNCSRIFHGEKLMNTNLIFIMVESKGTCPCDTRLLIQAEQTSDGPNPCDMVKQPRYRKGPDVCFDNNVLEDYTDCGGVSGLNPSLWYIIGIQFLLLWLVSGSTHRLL

SMILES	IC50 (Cav2.2 [1]; [3])	IC50 (Cav2.2 [1]; [4])	IC50 (Cav2.2 [2])
CC(C)c1ccccc1N(Cc1ccc(N2CCN(C)CC2)nc1)C(=O)C(C)(C)C [Compound 30, N-(2-Isopropyl-phenyl)-2,2-dimethyl-N-[6-(4-methyl-piperazin-1-yl)-pyridin-3-ylmethyl]-propionamide]	2.7 µM	18.9 µM	23.6 µM
CN1CCN(c2ccc(CN(C(=O)C3CCCCC3)c3ccc(F)cc3)cn2)CC1 [Compound 104, Cyclohexanecarboxylic acid (4-fluorophenyl)-[6-(4-methyl-piperazin-1-yl)-pyridin-3-ylmethyl]-amide]	2.5 µM	14.1 µM	22 µM
CCN(CC)c1ccc(CN(C(=O)C(C)(C)C)c2ccc(F)cc2)cn1 [Compound 3, N-(6-diethylamino-pyridin-3-ylmethyl)-N-(4-fluorophenyl)-2,2-dimethyl-propionamide trifluoroacetate]	1.3 µM	4.3 µM	12.1 µM
CCC(C)(C)C(=O)N(Cc1ccc(N2CCN(c3ccccn3)CC2)nc1)c1ccc(F)cc1 [Compound 26, N-(4-Fluorophenyl)-2,2-dimethyl-N-[6-(4-pyridin-2-yl-piperazin-1-yl)-pyridin-3-ylmethyl]-butyamide]	0.4 µM	1.7 µM	12.2 µM
CN(CCOc1ccccn1)c1ccc(CN(C(=O)C(C)(C)C)c2ccc(F)cc2)cn1 [Compound 29, N-(4-Fluorophenyl)-2,2-dimethyl-N-(6-{methyl-[2-(pyridin-2-yloxy)-ethyl]-amino}-pyridin-3-ylmethyl)-propanamide]	1 µM	5.2 µM	8.7 µM
CCN(c1ccc(CN(C(=O)C(C)(C)C)c2ccc(F)cc2)cn1)C1CC1 [Compound 7, N-(6-(Cyclopropyl(ethyl)amino)-pyridin-3-ylmethyl)-N-(4-fluorophenyl)-2,2-dimethyl-propionamide]	1.7 µM	12.9 µM	8 µM
Cc1cc(F)ccc1N(Cc1ccc(N2CCN(C)CC2)nc1)C(=O)C(C)(C)C [Compound 21, N-(4-Fluoro-2-methyl-phenyl)-2,2-dimethyl-N-[6-(4-methyl-piperazin-1-yl)-pyridin-3-ylmethyl]-propionamide]	2.7 µM	10.5 µM	18 µM
CCN(CC)c1ncc(CN(C(=O)C(C)(C)C)c2ccc(F)cc2)cn1 [Compound 84, N-(2-Diethylamino-pyrimidin-5-ylmethyl)-N-(4-fluorophenyl)-2,2-dimethyl-propionamide]	1.2 µM	4.3 µM	15.6 µM

Further lines, results first:

IC50 (Cav2.2 [1]; [3])	IC50 (Cav2.2 [1]; [4])	IC50 (Cav2.2 [2])	SMILES
1.9 µM	12.1 µM	9.8 µM	CC(C)(C)C(=O)N(Cc1ccc(N2CCCCC2)nc1)c1ccc(F)cc1 [Compound 70, N-(4-Fluorophenyl)-2,2-dimethyl-N-(3,4,5,6-tetrahydro-2H-[1,2′]bipyridinyl-5′-ylmethyl)-propionamide]
11.5 µM	37.6 µM	22.9 µM	CC(C)(C)C(=O)N(Cc1ccc(N2CCC(N3CCOCC3)CC2)nc1)c1ccc(F)cc1 [Compound 33, N-(4-Fluorophenyl)-2,2-dimethyl-N-(4-morpholin-4-yl-3,4,5,6-tetrahydro-2H-[1,2′]bipyridinyl-5′-ylmethyl)-propionamide]
0.3 µM	2.4 µM	4.2 µM	CC(C)(C)C(=O)N(Cc1ccc(N2CCN(c3ccccn3)CC2)nc1)c1ccc(F)cc1 [Compound 25, N-(4-Fluorophenyl)-2,2-dimethyl-N-[6-(4-pyridin-2-yl-piperazin-1-yl)-pyridin-3-ylmethyl]-propionamide]
2.4 µM	5.5 µM	19.6 µM	CC(C)(C)C(=O)N(Cc1ccc(N2CCC(N3CCCC3)CC2)nc1)c1ccc(F)cc1 [Compound 34, N-(4-Fluorophenyl)-2,2-dimethyl-N-(4-pyrrolidin-1-yl-3,4,5,6-tetrahydro-2H-[1,2′]bipyridinyl-5′-ylmethyl)-propionamide]

Source: patent US20100267697A1, “ION CHANNEL MODULATORS” (Wyeth, priority 2006, published 2010)
